In article PMC11928584, “H105A peptide eye drops promote photoreceptor survival in murine and human models of retinal degeneration” (Communications Medicine, 2025):
Where a SMILES comes first, the peptide text is derived from it.

What was measured:
[1] = system: PEDF-R; conditions: cited from earlier work
[2] = system: human iPSC-derived retinal organoids exposed to CSE; test: Ethidium homodimer staining of live retinal organoids (3D-ARQ); type: cell-based; conditions: D180 ROs, 24 h, mean ± SD, n=14
Procedure: Human iPSCs were differentiated into retinal organoids (ROs) following the protocol by Zhong et al.[41]. Briefly, on Day 0, hiPSC colonies were dissociated with dispase and grown in a suspension to form embryoid bodies, and slowly transitioned to neural induction media (DMEM/F12 (1:1), 1% N2 supplement (Invitrogen), 1 x minimum essential media-nonessential amino acids (NEAAs), 2 µg/ml heparin (Sigma)). On Day 7, EBs were seeded on Matrigel coated plates and maintained in neural induction media. On Day 16, the media was switched to the retinal differentiation medium (DMEM/F12 (3:1), 2% B27 (without vitamin A, Invitrogen), 1x NEAA and 1% antibiotic–antimycotic (Gibco)). Retinal domains were identified and lifted manually with tungsten needles between Day 21 and Day 26 under a phase contrast microscope. On day 30, the culture medium was transitioned to DMEM/F12 (3:1) with 2% B27, 1x NEAA, 1% antibiotic–antimycotic, 10% fetal bovine serum (FBS; Gibco), […] Taurine (Sigma), and 2 mM GlutaMAX (Invitrogen). Additionally, 1 µM retinoic acid supplement was introduced daily starting from day 63. […]
After treatment, ROs were washed in PBS (Gibco, 14190-144) and the auto-fluorescent background was measured by 3D-automated reporter quantification (3D-ARQ)[42], using a Tecan Spark Plate reader (SparkControl v2.3). The Z-position was determined manually by selecting the individual well and fluorescent intensity was measured using the optimized parameters below. […] After incubation, ROs were washed three times with PBS, and fluorescence intensity was measured by 3D-ARQ using the following parameters: Mode: Fluorescent top reading; Wavelength for PSVue-794: Excitation: Emission 730:820 nm, Excitation bandwidth: 10 nm, Emission bandwidth: 15 nm; Wavelength for Ethidium Homodimer: Excitation: Emission 530:630 nm, Excitation bandwidth: 5 nm, Emission bandwidth: 5 nm; Gain: 160, Manual; Number of flashes: 20; integration time: 40 µs; lag time 0 µs. […] Results were analysed after background subtraction; n = 19-24 ROs per condition. […]

| Structure (SMILES) | affinity for PEDF-R [1] | Fluorescence intensity of Ethidium homodimer ([2]; CSE 500 µg/ml + peptide 1 nM) | Fluorescence intensity of Ethidium homodimer ([2]; CSE 500 µg/ml + peptide 20 nM) |
| --- | --- | --- | --- |
| CC[C@H](C)[C@H](NC(=O)[C@H](CC(C)C)NC(=O)[C@H](CC(=O)O)NC(=O)[C@H](Cc1ccc(O)cc1)NC(=O)[C@H](Cc1ccc(O)cc1)NC(=O)[C@H](CC(C)C)NC(=O)[C@H](C)NC(=O)[C@H](CCCNC(=N)N)NC(=O)[C@H](C)NC(=O)[C@@H](NC(=O)[C@@H](NC(=O)[C@H](CO)NC(=O)[C@H](CCC(=O)O)NC(=O)[C@@H](NC(=O)[C@H](CCCNC(=N)N)NC(=O)[C@@H](N)CCC(N)=O)[C@@H](C)O)[C@@H](C)CC)[C@@H](C)CC)C(=O)N[C@@H](CO)C(=O)O [H105A] (H-QRTESIIARALYYDLIS-OH) | have affinity for PEDF-R | 848.9 ± 51.0 RFU | 919.2 ± 46.0 RFU |
| CC[C@H](C)[C@H](NC(=O)[C@H](CC(C)C)NC(=O)[C@H](CC(=O)O)NC(=O)[C@H](Cc1ccc(O)cc1)NC(=O)[C@H](Cc1ccc(O)cc1)NC(=O)[C@H](CC(C)C)NC(=O)[C@H](C)NC(=O)[C@H](CCCNC(=N)N)NC(=O)[C@H](Cc1c[nH]cn1)NC(=O)[C@@H](NC(=O)[C@@H](NC(=O)[C@H](CO)NC(=O)[C@H](CCC(=O)O)NC(=O)[C@@H](NC(=O)[C@H](C)NC(=O)[C@@H](N)CCC(N)=O)[C@@H](C)O)[C@@H](C)CC)[C@@H](C)CC)C(=O)N[C@@H](CO)C(=O)O [R99A] (H-QATESIIHRALYYDLIS-OH) | lacks PEDF-R affinity | – | 1283.2 ± 67.6 RFU |
